Where two headings read alike, the source gives them in different places.
Assays:
[1] = amide bond, DMF, 25.0 °C
[2] = amide bond, DMF, 25.0 °C; remark: listed apart in the source
[3] = test system: TLR7 induced IL-6 secretion in human mononuclear cells (PBMC's); test: TLR7 induced IL-6 in human PBMC's; assay type: cell-based; details: TLR7 specific ligand 2 uM overnight, IL-6 AlphaLISA
Experimental: TLR7 Induced IL-6 in Human PBMC's
Human PBMC assay is used as one of the functional assay to monitor the activity of IRAK1 and IRAK4 small molecule inhibitors on TLR7 induced IL-6 secretion in human mononuclear cells (PBMC's). Human PBMCs are prepared from buffy coats (whole blood enriched with leukocytes and platelets) obtained from healthy volunteers used either fresh or frozen are plated in assay media (RPMI+2% P/S/L-glu+10% HI-FBS) and pre-treated with compounds in DMSO/media (range of concentrations from 25 μM to 0.4 nM) or controls (0.25% DMSO) for 30 minutes at 37° C. in assay media. Following pre-treatment with IRAK1 and IRAK4 inhibitors, PBMC's are stimulated with TLR7 specific ligand (2 uM) overnight (16-18 hrs) at 37° C. After incubation supernatant is transferred to 384 well PE AlphaPlate-384 (6005350) and IL-6 is quantified using Perkin Elmer IL-6 Alpha LISA kit (AL223C). Plates are read on an Envision® plate reader with Alpha Technology®.

IRAK1 = IRAK1 (Homo sapiens (Human), UniProt P51617); test: IRAK1 enzymatic assay; assay type: biochemical; details: His-TEV-IRAK-1, ATP 1 μM, 3 hours at 30° C.
Experimental: IRAK1 is a human purified recombinant enzyme (His-TEV-IRAK1 (194-712)) In this assay, IRAK-1 hydrolyses ATP and autophosphorylates.
Measurement of IRAK-1 inhibition is performed in streptavidin coated 384 well FlashPlate (PerkinElmer #SMP410A).
His-TEV-IRAK-1 (15 ng/well), ATP (1 μM, [^33P]ATP 0.25 μCi/well) and compounds in DMSO (range of concentrations from 20 μM to 1 nM) or controls (2% DMSO) are incubated for 3 hours at 30° C. in assay buffer: Hepes pH 7.0 50 mM, Fatty acid-free BSA 0.1%, Dithiothreitol DTT 2 mM, MgCl2 10 mM, EGTA 0.5 mM, Triton-X-100 0.01%. Kinase reaction is stopped by addition of EDTA. Supernatant is discarded, plates are washed three times with 150 mM NaCl and radioactivity is then measured in a Microbeta Trilux reader.

IRAK4 = IRAK4 (Homo sapiens (Human), UniProt Q9NWZ3); test: IRAK4 enzymatic assay; assay type: biochemical; details: His-TEV-IRAK4, ATP 2 μM, STK1-biotin peptide 300 nM, 3 hours at 30° C.
Experimental: IRAK4 is a human purified recombinant enzyme (His-TEV-IRAK1 (194-712) IRAK4 hydrolyses ATP, autophosphorylates and phosphorylates a Serine/Threonine generic peptidic substrate (STK: 61ST1BLC from CisBio International based in Bagnols/Cèze FR).
Measurement of IRAK-4 inhibition is performed in streptavidin coated 384 well FlashPlate (PerkinElmer #SMP410A). His-TEV-IRAK4 (20 ng/well), ATP (2 μM, [^33P]ATP 0.25 μCi/well), STK1-biotin peptide (300 nM) and compounds in DMSO (range of concentrations from 20 μM to 1 nM) or controls (2% DMSO) are incubated for 3 hours at 30° C. in assay buffer: Hepes pH 7.0 50 mM, Fatty acid-free BSA 0.1%, Dithiothreitol DTT 2 mM, MgCl2 10 mM, EGTA 0.5 mM, Tween-20 0.01%, MnCl2 5 mM.
Kinase reaction is stopped by addition of EDTA. Supernatant is discarded, plates are washed three times with 150 mM NaCl and radioactivity is then measured in a Microbeta Trilux reader.

IRAK1, sequence (P51617 194-712): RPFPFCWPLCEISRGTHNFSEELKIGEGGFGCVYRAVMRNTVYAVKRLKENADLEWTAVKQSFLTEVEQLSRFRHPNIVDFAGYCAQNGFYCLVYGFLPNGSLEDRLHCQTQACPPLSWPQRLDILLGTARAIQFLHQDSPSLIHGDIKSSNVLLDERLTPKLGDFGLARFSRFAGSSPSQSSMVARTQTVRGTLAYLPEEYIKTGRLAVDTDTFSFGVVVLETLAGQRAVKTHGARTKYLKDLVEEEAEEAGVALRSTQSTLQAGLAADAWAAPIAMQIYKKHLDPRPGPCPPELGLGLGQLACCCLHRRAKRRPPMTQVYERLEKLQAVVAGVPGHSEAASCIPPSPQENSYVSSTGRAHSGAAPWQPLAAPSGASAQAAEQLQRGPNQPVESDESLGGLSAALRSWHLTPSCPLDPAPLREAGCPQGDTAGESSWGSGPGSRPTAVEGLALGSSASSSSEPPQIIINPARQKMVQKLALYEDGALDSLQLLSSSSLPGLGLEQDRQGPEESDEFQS
IRAK4, sequence (Q9NWZ3 whole entry): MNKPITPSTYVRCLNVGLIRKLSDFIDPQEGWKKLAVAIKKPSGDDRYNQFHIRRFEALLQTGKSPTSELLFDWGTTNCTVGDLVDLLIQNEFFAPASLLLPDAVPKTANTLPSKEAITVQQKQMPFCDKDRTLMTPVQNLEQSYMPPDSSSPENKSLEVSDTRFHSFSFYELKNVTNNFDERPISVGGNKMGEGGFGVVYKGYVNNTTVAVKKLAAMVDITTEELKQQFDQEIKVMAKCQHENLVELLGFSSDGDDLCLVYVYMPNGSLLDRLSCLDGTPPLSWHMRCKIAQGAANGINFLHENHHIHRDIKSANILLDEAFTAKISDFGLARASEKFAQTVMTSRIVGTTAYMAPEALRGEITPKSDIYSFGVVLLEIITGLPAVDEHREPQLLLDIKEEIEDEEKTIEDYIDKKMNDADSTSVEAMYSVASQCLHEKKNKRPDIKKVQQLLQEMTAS

Row | SMILES | ring closure, isolated yield ([1]; from Nc1nc2ccccc2n1CC(O)C1CCCN(c2ccc(=O)n(Cc3cccc(C(=O)[O-])c3)n2)C1, 16-membered ring, HATU/HOAt/DMAP/DIEA, 1.27 mM) [%] | ring closure, yield of all isomers ([2]; from Nc1nc2ccccc2n1Cc1cccc(-c2ccc(=O)n(Cc3cccc(C(=O)O)c3)n2)c1, HBTU/HOBt/N-methylmorpholine, 10.0 mM, 15.0 h) [%] | ring closure, isolated yield ([1]; from Nc1nc2ccccc2n1Cc1cccc(-c2ccc(=O)n(Cc3cccc(C(=O)[O-])c3)n2)c1, 15-membered ring, HBTU/HOBt/NMM, 10.0 mM) [%] | IC50 [3] [nM] | IC50 (IRAK1) [nM] | IC50 (IRAK4) [nM] | ring closure, yield of all isomers ([2]; from Nc1nc2ccccc2n1CC(O)CCOc1ccc(=O)n(Cc2cccc(C(=O)O)c2)n1, HATU/HOAt/DMAP/DIPEA, 2.44 mM, 14.0 h) [%] | ring closure, isolated yield ([1]; from potassium 3-{3-[4-(2-Amino-benzoimidazol-1-yl)-3-hydroxy-butoxy]-6-oxo-6H-pyridazin-1-ylmethyl}-benzoic acetate, 16-membered ring, HATU/HOAt/DMAP/DIEA, 2.4 mM) [%]
1 | O=C1Nc2nc3ccccc3n2CC(O)C2CCCN(C2)c2ccc(=O)n(n2)Cc2cccc1c2 (centres unmarked) | 16 |  |  |  |  |  |  | 
2 | O=C1Nc2nc3ccccc3n2Cc2cccc(c2)-c2ccc(=O)n(n2)Cc2cccc1c2 [Compound 1, 8,15,17,25,29-pentaazahexacyclo[23.3.1.1^2,61^19,230^8,160^9,14]hentriaconta-1(29),2(31),3,5,9(14),10,12,15,19(30),20,22,27-dodecaene-18,26-dione] |  | 26 | 26 | 100 to 1000 | < 100 | < 100 |  | 
3 | O=C1Nc2nc3ccccc3n2CCc2cccc(c2)-c2ccc(=O)n(n2)Cc2cccc1c2 [Compound 2, 6,14,16,23,32-pentaazahexacyclo[24.3.1.1^2,6.1^8,12.0^15,23.0^17,22]dotriaconta-1(30),2(32),3,8,10,12(31),15,17(22),18,20,26,28-dodecaene-5,13-dione] |  |  |  | 100 to 1000 | < 100 | < 100 |  | 
4 | COc1cc2nc3n(c2cc1OC)Cc1cccc(c1)-c1ccc(=O)n(n1)Cc1cccc(c1)C(=O)N3 [Compound 5, 11,12-dimethoxy-8,15,17,25,29-pentaazahexacyclo[23.3.1.1^2,61^19,23.0^8,16.0^9,14]hentriaconta-1(29),2(31),3,5,9(14),10,12,15,19(30),20,22,27-dodecaene-18,26-dione] |  |  |  | < 100 | < 100 | < 100 |  | 
5 | Cc1ccc2cc1-c1ccc(=O)n(n1)Cc1cccc(c1)C(=O)Nc1nc3ccccc3n1C2 [Compound 8, 3-Methyl-8,15,17,25,29-pentaazahexacyclo[23.3.1.1^2,61^19,230^8,160^9,14]hentriaconta-1(29),2(31),3,5,9(14),10,12,15,19(30),20,22,27-dodecaene-18,26-dione] |  |  |  | 100 to 1000 | < 100 | < 100 |  | 
6 | O=C1Nc2nc3ccccc3n2Cc2ccc(O)c(c2)-c2ccc(=O)n(n2)Cc2cccc1c2 [Compound 12, 3-hydroxy-8,15,17,25,29-pentaazahexacyclo[23.3.1.1^2,6.1^19,23.0^8,16.0^9,14]hentriaconta-1(29),2(31),3,5,9(14),10,12,15,19(30),20,22,27-dodecaene-18,26-dione] |  |  |  | 1000 to 5000 | < 100 | < 100 |  | 
7 | O=C1Nc2nc3ccccc3n2Cc2cc(ccn2)-c2ccc(=O)n(n2)Cc2cccc1c2 [Compound 16] |  |  |  | < 100 | < 100 | < 100 |  | 
8 | O=C1Nc2nc3ccccc3n2CC(O)c2cccc(c2)-c2ccc(=O)n(n2)Cc2cccc1c2 (centres unmarked) [Compound 17] |  |  |  | < 100 | < 100 | < 100 |  | 
9 | O=C1Nc2nc3ccccc3n2CC(O)CCOc2ccc(=O)n(n2)Cc2cccc1c2 (centres unmarked) [Compound 18, 20-hydroxy-23-oxa-1,9,11,18,28-pentaazapentacyclo[22.3.1.1^3,7.0^10,18.0^12,17]nonacosa-3,5,7(29),10,12(17),13,15,24(28),25-nonaene-8,27-dione] |  |  |  | 100 to 1000 | < 100 | < 100 | 7 | 7
10 | O=C1Nc2nc3ccccc3n2Cc2cc(ccc2O)-c2ccc(=O)n(n2)Cc2cccc1c2 [Compound 20, 5-hydroxy-8,15,17,25,29-pentaazahexacyclo[23.3.1.1^2,6.1^19,23.08,16.0^9,14]hentriaconta-1(29),2(31),3,5,9(14),10,12,15,19(30),20,22,27-dodecaene-18,26-dione] |  |  |  | < 100 | < 100 | < 100 |  | 
11 | O=C(O)c1ccc2c(c1)nc1n2Cc2cccc(c2)-c2ccc(=O)n(n2)Cc2cccc(c2)C(=O)N1 [Compound 21] |  |  |  | 100 to 1000 | < 100 | < 100 |  | 
12 | CC(=O)NCCc1ccc2c(c1)nc1n2Cc2cccc(c2)-c2ccc(=O)n(n2)Cc2cccc(c2)C(=O)N1 [Compound 25] |  |  |  | < 100 | < 100 | < 100 |  | 

Source: patent publication US10064861B2, “Macrocyclic pyridazinone derivatives” (Merck Patent GmbH, priority 2013, dated 2018)
